Data on 3 compounds can be found in BindingDB's records for doi:10.1073/pnas.0708800104 (University of Oxford, 2007).

Assay [1] is described as follows: Inhibition of Cdk5.
The target in assay [2] is Proto-oncogene tyrosine-protein kinase Src (Homo sapiens) (UniProt P12931). The assay is described as follows: Inhibition of cSrc.
The nature of assay [3]: Inhibition of IGF1R-dependent tumor cell growth in human MCF7 cells.

Proto-oncogene tyrosine-protein kinase Src (Homo sapiens), sequence (P12931 whole entry, looked up): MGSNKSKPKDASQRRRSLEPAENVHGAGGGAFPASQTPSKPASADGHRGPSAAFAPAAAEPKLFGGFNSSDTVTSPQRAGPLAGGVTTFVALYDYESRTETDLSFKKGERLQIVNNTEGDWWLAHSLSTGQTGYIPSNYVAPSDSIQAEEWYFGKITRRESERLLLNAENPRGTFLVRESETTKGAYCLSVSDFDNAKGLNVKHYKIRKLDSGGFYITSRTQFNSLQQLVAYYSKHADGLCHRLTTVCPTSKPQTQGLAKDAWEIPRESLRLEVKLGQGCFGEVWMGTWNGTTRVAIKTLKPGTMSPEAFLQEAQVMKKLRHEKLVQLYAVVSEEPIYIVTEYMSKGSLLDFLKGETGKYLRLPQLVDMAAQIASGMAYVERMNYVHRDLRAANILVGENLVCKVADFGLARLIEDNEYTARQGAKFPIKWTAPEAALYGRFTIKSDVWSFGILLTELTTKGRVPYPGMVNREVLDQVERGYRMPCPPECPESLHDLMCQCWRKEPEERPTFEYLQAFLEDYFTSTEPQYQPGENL

In assay [1], `O=C1Nc2ccccc2/C1=C\c1c(Cl)[nH]c2ccccc12` yielded an IC50 of 25 µM. `CCN(CC)CCCCNc1ncc2cc(-c3cc(OC)cc(OC)c3)c(NC(=O)NC(C)(C)C)nc2n1` returned a concentration for half-maximal inhibition (IC50) in assay [2] of 19.8 µM. In turn, `COc1ccc(Cl)cc1NC(=O)Nc1cc(C)nc2ccccc12` [TCMDC-125497] yielded a 50% inhibitory concentration (IC50) in assay [3] of 8 µM.
